Legend:
JAK2 = JAK2 (Homo sapiens (Human), UniProt O60674); test: Biochemical JAK kinase assay (LanthaScreen), JAK2; conditions: for Ki: read-out: JAK2 pKi (converted)
Procedure, shortened: (§1)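 LanthaScreen format: phospho-STAT1 (pTyr701) detected with 2 nM Tb antibody after 10 mM EDTA quench. Kinase step used Km-level ATP and 200 nM STAT1 peptide, 1 h at ambient after 1 h pre-incubation. Inhibition fitted to IC50, reported as pKi.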

JAK1 = JAK1 (Homo sapiens (Human), UniProt P23458); test: Biochemical JAK kinase assay (LanthaScreen), JAK1; conditions: for Ki: read-out: JAK1 pKi (converted)
Sequence of JAK1 (P23458 whole entry): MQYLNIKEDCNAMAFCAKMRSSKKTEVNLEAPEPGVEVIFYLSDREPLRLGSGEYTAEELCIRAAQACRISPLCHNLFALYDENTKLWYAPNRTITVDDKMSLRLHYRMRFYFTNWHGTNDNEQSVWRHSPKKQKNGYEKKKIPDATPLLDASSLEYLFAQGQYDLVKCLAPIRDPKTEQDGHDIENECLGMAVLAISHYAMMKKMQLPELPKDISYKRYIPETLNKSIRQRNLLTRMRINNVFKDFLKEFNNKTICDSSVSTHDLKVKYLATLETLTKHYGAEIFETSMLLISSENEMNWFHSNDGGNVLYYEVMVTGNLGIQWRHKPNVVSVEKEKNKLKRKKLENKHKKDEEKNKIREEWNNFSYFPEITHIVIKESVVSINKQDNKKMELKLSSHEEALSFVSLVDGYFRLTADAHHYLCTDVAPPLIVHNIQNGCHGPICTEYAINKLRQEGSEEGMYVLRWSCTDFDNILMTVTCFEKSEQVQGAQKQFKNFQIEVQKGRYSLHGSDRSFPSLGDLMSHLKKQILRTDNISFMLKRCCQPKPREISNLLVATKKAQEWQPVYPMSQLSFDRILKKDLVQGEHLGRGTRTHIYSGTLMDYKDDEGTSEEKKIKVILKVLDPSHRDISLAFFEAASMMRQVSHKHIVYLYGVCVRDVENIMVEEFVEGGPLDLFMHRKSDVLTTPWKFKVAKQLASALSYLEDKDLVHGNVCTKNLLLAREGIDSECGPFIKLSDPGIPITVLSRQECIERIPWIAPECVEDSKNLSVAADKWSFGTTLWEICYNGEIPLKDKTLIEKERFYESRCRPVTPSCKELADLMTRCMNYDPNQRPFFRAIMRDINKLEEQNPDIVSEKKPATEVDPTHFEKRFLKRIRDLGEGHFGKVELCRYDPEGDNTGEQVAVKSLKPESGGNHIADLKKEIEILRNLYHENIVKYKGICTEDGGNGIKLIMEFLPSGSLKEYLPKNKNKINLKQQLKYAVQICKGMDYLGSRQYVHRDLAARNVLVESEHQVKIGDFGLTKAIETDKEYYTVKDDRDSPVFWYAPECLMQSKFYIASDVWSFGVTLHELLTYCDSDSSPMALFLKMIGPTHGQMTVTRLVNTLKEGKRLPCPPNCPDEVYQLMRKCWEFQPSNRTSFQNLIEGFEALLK
Procedure, shortened: as §1

[1] = tested on: IL-13 induced STAT6 phosphorylation in BEAS-2B human lung epithelial cells; test: Cellular JAKI potency assay (BEAS-2B); format: cell-based; conditions: Homo sapiens, BEAS-2B, BEAS-2B cells, read-out: BEAS2B pIC50 (converted)
Procedure, shortened: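 BEAS-2B cells were preincubated with compound (0.1% DMSO) in HBSS/HEPES/BSA for 1 h at 37 °C, then stimulated with IL-13 (80 ng/mL before addition) for 30 min. After lysis, pSTAT6 (Tyr641) was quantified by AlphaLISA SureFire; IC50 from a 4-parameter fit of percent inhibition, reported as pIC50.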

Sequence of JAK2 (O60674 whole entry): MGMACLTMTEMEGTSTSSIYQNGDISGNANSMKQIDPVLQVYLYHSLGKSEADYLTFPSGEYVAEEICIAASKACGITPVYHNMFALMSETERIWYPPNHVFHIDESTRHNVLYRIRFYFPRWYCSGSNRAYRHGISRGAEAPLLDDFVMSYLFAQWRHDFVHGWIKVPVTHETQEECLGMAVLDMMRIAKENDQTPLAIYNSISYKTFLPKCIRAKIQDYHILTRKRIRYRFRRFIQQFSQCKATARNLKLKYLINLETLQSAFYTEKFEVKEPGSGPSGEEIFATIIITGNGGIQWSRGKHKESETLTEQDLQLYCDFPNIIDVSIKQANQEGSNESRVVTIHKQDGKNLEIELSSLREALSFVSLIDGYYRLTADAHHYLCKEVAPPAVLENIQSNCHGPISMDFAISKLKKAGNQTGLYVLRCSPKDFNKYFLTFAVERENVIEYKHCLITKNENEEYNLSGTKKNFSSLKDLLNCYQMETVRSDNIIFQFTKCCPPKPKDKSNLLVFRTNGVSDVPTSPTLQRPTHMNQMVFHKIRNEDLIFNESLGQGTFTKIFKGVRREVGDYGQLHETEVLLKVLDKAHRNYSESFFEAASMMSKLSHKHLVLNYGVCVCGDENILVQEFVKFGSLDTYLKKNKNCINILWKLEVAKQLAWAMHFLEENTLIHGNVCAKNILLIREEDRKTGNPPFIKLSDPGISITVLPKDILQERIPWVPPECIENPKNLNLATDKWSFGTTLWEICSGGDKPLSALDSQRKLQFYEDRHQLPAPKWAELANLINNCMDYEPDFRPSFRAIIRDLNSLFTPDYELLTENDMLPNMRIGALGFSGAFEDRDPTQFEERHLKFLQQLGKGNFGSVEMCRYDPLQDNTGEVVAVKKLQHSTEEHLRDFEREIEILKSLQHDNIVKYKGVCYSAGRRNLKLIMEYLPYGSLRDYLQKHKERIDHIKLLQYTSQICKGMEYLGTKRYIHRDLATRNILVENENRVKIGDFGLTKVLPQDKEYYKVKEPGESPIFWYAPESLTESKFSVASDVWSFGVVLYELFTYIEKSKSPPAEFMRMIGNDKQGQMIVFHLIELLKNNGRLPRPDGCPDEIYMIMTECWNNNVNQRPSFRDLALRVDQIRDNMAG

| Structure (SMILES) | Ki (JAK2) | Ki (JAK1) | IC50 [1] | JAK2 pKi (JAK2) | JAK1 pKi (JAK1) |
| --- | --- | --- | --- | --- | --- |
| CCc1cc(O)ccc1-c1ccc2c(-c3nc(C4=CCCN(CCC5(O)CC5)C4)c[nH]3)n[nH]c2c1F [Example 338] | 0.1 to 1 nM | 0.1 to 1 nM | 10 to 31.6 nM |  |  |
| CCc1cc(O)ccc1-c1ccc2c(-c3nc(C4=CCNC5(CC5)C4)c[nH]3)n[nH]c2c1 [Example 343] | 0.1 to 1 nM | 0.1 to 1 nM | 10 to 31.6 nM |  |  |
| CCc1cc(O)ccc1-c1ccc2c(-c3nc(C4=CC[C@H](C)N(CC5COC5)C4)c[nH]3)n[nH]c2c1F [Example 267] | 0.1 to 1 nM | 0.1 to 1 nM | 10 to 31.6 nM |  |  |
| CCc1cc(O)ccc1-c1ccc2c(-c3nc(C4=CCN(CCC(C)(C)O)C4)c[nH]3)n[nH]c2c1F [Example 55] |  |  | 3.16 to 10 nM | A (A represents a pKi value ≥10 (Ki≤0.1 nM)) | A (A represents a pKi value ≥10 (Ki≤0.1 nM)) |
| CCc1cc(O)ccc1-c1ccc2c(-c3nc(C4=CCCN(C(=O)c5ccccc5)C4)c[nH]3)n[nH]c2c1 [Example 163] | 1 to 10 nM | 1 to 10 nM | 31.6 to 100 nM |  |  |
| CCc1cc(O)ccc1-c1ccc2c(-c3nc(C4=CCN(C(=O)OC)CC4)c[nH]3)n[nH]c2c1F [Example 156] | 0.1 to 1 nM | 1 to 10 nM | 31.6 to 100 nM |  |  |
| CCc1cc(O)ccc1-c1ccc2c(-c3nc(C4=CCN(CCN5CCNC5=O)CC4)c[nH]3)n[nH]c2c1 [Example 118] |  |  | 31.6 to 100 nM | A (A represents a pKi value ≥10 (Ki≤0.1 nM)) | A (A represents a pKi value ≥10 (Ki≤0.1 nM)) |
| CCc1cc(O)ccc1-c1ccc2c(-c3nc(C4=CCN(C(=O)CCN(C)C)C4)c[nH]3)n[nH]c2c1F [Example 363] |  | 0.1 to 1 nM | 31.6 to 100 nM | A (A represents a pKi value ≥10 (Ki≤0.1 nM)) |  |
| CCc1cc(O)ccc1-c1ccc2c(-c3nc(C4=CCNC(C(C)(C)C)C4)c[nH]3)n[nH]c2c1 (stereo not drawn) [Example 356] | 0.1 to 1 nM | 0.1 to 1 nM | 31.6 to 100 nM |  |  |
| CCc1cc(O)ccc1-c1ccc2c(-c3nc(C4=CC[C@H](C)N(CCNS(C)(=O)=O)C4)c[nH]3)n[nH]c2c1F [Example 278] | 0.1 to 1 nM | 0.1 to 1 nM | 10 to 31.6 nM |  |  |
| CCc1cc(O)ccc1-c1ccc2c(-c3nc(C4=CCN(CC)C4)c[nH]3)n[nH]c2c1F [Example 283] |  |  | 3.16 to 10 nM | A (A represents a pKi value ≥10 (Ki≤0.1 nM)) | A (A represents a pKi value ≥10 (Ki≤0.1 nM)) |
| CCc1cc(O)ccc1-c1ccc2c(-c3nc(C4=CCN(S(C)(=O)=O)CC4)c[nH]3)n[nH]c2c1F [Example 155] | 0.1 to 1 nM | 1 to 10 nM | 10 to 31.6 nM |  |  |
| CCc1cc(O)ccc1-c1ccc2c(-c3nc(C4=CCN(Cc5cnn[nH]5)CC4)c[nH]3)n[nH]c2c1 [Example 133] |  | 0.1 to 1 nM | 10 to 31.6 nM | A (A represents a pKi value ≥10 (Ki≤0.1 nM)) |  |
| CCc1cc(O)ccc1-c1ccc2c(-c3nc(C4=CC(C(C)C)NC4)c[nH]3)n[nH]c2c1F (stereo not drawn) [Example 388] | 1 to 10 nM | 1 to 10 nM | 31.6 to 100 nM |  |  |
| CCc1cc(O)ccc1-c1ccc2c(-c3nc(C4=CCN(CCNC(=O)C(C)C)CC4)c[nH]3)n[nH]c2c1 [Example 102] |  |  | 3.16 to 10 nM | A (A represents a pKi value ≥10 (Ki≤0.1 nM)) | A (A represents a pKi value ≥10 (Ki≤0.1 nM)) |
| CCc1cc(O)ccc1-c1ccc2c(-c3nc(C4=CCCN(C(C)C5CC(O)C5)C4)c[nH]3)n[nH]c2c1F (stereo not drawn) [Example 66] |  | 0.1 to 1 nM | 10 to 31.6 nM | A (A represents a pKi value ≥10 (Ki≤0.1 nM)) |  |
| CCc1cc(O)ccc1-c1ccc2c(-c3nc(C4=CCN(C[C@@H]5COCCN5)C4)c[nH]3)n[nH]c2c1 [Example 200] |  | 0.1 to 1 nM | 10 to 31.6 nM | A (A represents a pKi value ≥10 (Ki≤0.1 nM)) |  |
| CCc1cc(O)ccc1-c1ccc2c(-c3nc(C4=CCN(CCC(C)(C)O)CC4)c[nH]3)n[nH]c2c1F [Example 37] | 0.1 to 1 nM | 0.1 to 1 nM | 10 to 31.6 nM |  |  |

| Structure (SMILES) | Ki (JAK2) | Ki (JAK1) | IC50 [1] | JAK2 pKi (JAK2) | JAK1 pKi (JAK1) |
| --- | --- | --- | --- | --- | --- |
| CCc1cc(O)ccc1-c1ccc2c(-c3nc(C4=CC[C@H](C)N(CCN5CCOCC5)C4)c[nH]3)n[nH]c2c1F [Example 270] | 0.1 to 1 nM | 0.1 to 1 nM | 10 to 31.6 nM |  |  |
| CCc1cc(O)ccc1-c1ccc2c(-c3nc(C4=CCN(C5CCNC5=O)C4)c[nH]3)n[nH]c2c1F (stereo not drawn) [Example 98] |  | 0.1 to 1 nM | 31.6 to 100 nM | A (A represents a pKi value ≥10 (Ki≤0.1 nM)) |  |
| CCc1cc(O)ccc1-c1ccc2c(-c3nc(C4=CCN([C@H]5CC[C@@](C)(O)CC5)C4)c[nH]3)n[nH]c2c1F [Example 341] |  |  | 10 to 31.6 nM | A (A represents a pKi value ≥10 (Ki≤0.1 nM)) | A (A represents a pKi value ≥10 (Ki≤0.1 nM)) |
| CCc1cc(O)ccc1-c1ccc2c(-c3nc(C4=CCN(CC5COC5)CC4)c[nH]3)n[nH]c2c1F [Example 60] |  | 0.1 to 1 nM | 10 to 31.6 nM | A (A represents a pKi value ≥10 (Ki≤0.1 nM)) |  |
| CCc1cc(O)ccc1-c1ccc2c(-c3nc(C4=C[C@@H](CO)NC4)c[nH]3)n[nH]c2c1 [Example 240] | 0.1 to 1 nM | 0.1 to 1 nM | 31.6 to 100 nM |  |  |
| CCc1cc(O)c(C)cc1-c1ccc2c(-c3nc(C4=CCNC4)c[nH]3)n[nH]c2c1F [Example 328] | 1 to 10 nM | 0.1 to 1 nM | 10 to 31.6 nM |  |  |
| CCCN1CC=C(c2c[nH]c(-c3n[nH]c4c(F)c(-c5ccc(O)cc5CC)ccc34)n2)C1 [Example 288] |  |  | 3.16 to 10 nM | A (A represents a pKi value ≥10 (Ki≤0.1 nM)) | A (A represents a pKi value ≥10 (Ki≤0.1 nM)) |
| CCc1cc(O)ccc1-c1ccc2c(-c3nc(C4=C[C@H](CC#N)NC4)c[nH]3)n[nH]c2c1F [Example 247] | 0.1 to 1 nM | 0.1 to 1 nM | 10 to 31.6 nM |  |  |
| CCc1cc(O)ccc1-c1ccc2c(-c3nc(C4=CC[C@H](C)N([C@H]5C[C@@H](O)C5)C4)c[nH]3)n[nH]c2c1F [Example 265] | 0.1 to 1 nM | 0.1 to 1 nM | 3.16 to 10 nM |  |  |
| CCc1cc(O)ccc1-c1ccc2c(-c3nc(C4=C[C@H](CO)NC4)c[nH]3)n[nH]c2c1 [Example 239] | 0.1 to 1 nM | 0.1 to 1 nM | 31.6 to 100 nM |  |  |
| CCc1cc(O)ccc1-c1ccc2c(-c3nc(C4=CCN(C5CCC5)[C@H]4CO)c[nH]3)n[nH]c2c1F [Example 304] |  |  | 10 to 31.6 nM | A (A represents a pKi value ≥10 (Ki≤0.1 nM)) | A (A represents a pKi value ≥10 (Ki≤0.1 nM)) |
| CCc1cc(O)ccc1-c1ccc2c(-c3nc(C4=CCCN(CCS(=O)(=O)NC)C4)c[nH]3)n[nH]c2c1 [Example 89] |  | 0.1 to 1 nM | 10 to 31.6 nM | A (A represents a pKi value ≥10 (Ki≤0.1 nM)) |  |
| CCc1cc(O)ccc1-c1ccc2c(-c3nc(C4=CCN(Cc5c[nH]nn5)C4)c[nH]3)n[nH]c2c1F [Example 146] | 0.1 to 1 nM | 0.1 to 1 nM | 10 to 31.6 nM |  |  |
| CCc1cc(O)ccc1-c1ccc2c(-c3nc(C4=CCN(CCNS(C)(=O)=O)C4)c[nH]3)n[nH]c2c1F [Example 115] |  | 0.1 to 1 nM | 10 to 31.6 nM | A (A represents a pKi value ≥10 (Ki≤0.1 nM)) |  |
| CCc1cc(O)ccc1-c1ccc2c(-c3nc(C4=CCN(CCc5ccccc5)C4)c[nH]3)n[nH]c2c1 [Example 141] | 0.1 to 1 nM | 0.1 to 1 nM | 100 to 316 nM |  |  |
| CCc1cc(O)ccc1-c1ccc2c(-c3nc(C4=CCN(C(=O)COCCNCCOC)C4)c[nH]3)n[nH]c2c1F [Example 389] |  | 0.1 to 1 nM | 100 to 316 nM | A (A represents a pKi value ≥10 (Ki≤0.1 nM)) |  |
| CCc1cc(O)ccc1-c1ccc2c(-c3nc(C4=CCN(C5CCC(CO)CC5)C4)c[nH]3)n[nH]c2c1F (stereo not drawn) [Example 331] | 0.1 to 1 nM |  | 10 to 31.6 nM |  | A (A represents a pKi value ≥10 (Ki≤0.1 nM)) |
| CCc1cc(O)ccc1-c1ccc2c(-c3nc(C4=CCNC4C)c[nH]3)n[nH]c2c1F (stereo not drawn) [Example 313] | 0.1 to 1 nM | 0.1 to 1 nM | 10 to 31.6 nM |  |  |

Reference: US20240092758A1, “IMIDAZOLO INDAZOLE COMPOUNDS AS JAK INHIBITORS” (Theravance Biopharma R&D IP, LLC, priority 2021, published 2024)
